Laboratory results as given in US9719987B2, “Immunoadsorbent compositions comprising hyaluronic acid oligosaccharides” (FUNDACIO INSTITUT D'INVESTIGACIO BIOMEDICA DE BELLVITGE …, priority 2012, dated 2017).
Values joined by “and” are separate entries in the source; they are usually repeats but may differ in a detail not shown here. Equal entries are not always repeated.

Experiments:
[1] = baboon C63, 200 mg/kg CyP over 4 days from day 20, day relative to first PRBC injection
Source text: The dose of CyP was chosen because it largely eliminates the mature immune system, leading to a major reduction in antibody and autoantibody levels, while leaving hematopoietic precursors intact.

[2] = system: anti-carbohydrate antibodies of baboon serums; assay: Glycan array screening of baboon serums (406 glycans); assay type: binding, baboons (Papio anubis); conditions: for average±S.D. level of antibodies: before transplant/PRBC, animals without anti-Gal removal (A15, A14) or sampled before GAS914 (C63); for change of anti-carbohydrate antibodies after PRBC exposure: animal E19
Source text: Heterotopic pig heart and kidney were placed in the abdominal cavity of baboons as previously described (Schmoeckel M et al. 1998 Transplantation 65:1570-1577; Cozzi E et al. 1997 Transplantation. 64:1383-1392). Blood samples for anti-carbohydrate antibody analysis were obtained from each animal before transplantation and at acute humoral xenotransplant rejection (AHXR).
Three animals (D29, E19 and E7) were exposed to weekly injections of 5 cubic centimeters (cc) of PRBC three times and blood samples for anti-carbohydrate antibodies were analysed one week after last injection. Another animal received 7 daily injections of 5 cc of PRBC (C63), until an augment of the level of anti-pig hemolytic antibodies (APHA) was observed, and blood samples were analysed at days 2, 20 and 30 relative to the first PRBC injection.
The carbohydrate-binding specificity of baboon serums obtained before and after pig organ xenotransplantation or PRBC exposure was investigated on glycan array v4.1 comprised of 406 glycans (Consortium for Functional Glycomics, Protein-Glycan Interaction Core-H) (http://www.functionalglycomics.org). Two different studies were performed: Consortium for Functional Glycomics projects #1313 and #1577. Pre and post-immunization samples from each animal were analysed in the same glycoarray study with exception of C63 day 20, which was performed in study #1577 whilst the other samples from this animal were analysed in study #1313. In order to assess the potential effect of a different glycoarray study, a linear mixed model with repeated measures was fitted for each carbohydrate, with its log expression as dependent variable and type of sample (pre or post-immunization) and the study (#1313 or #1577) as independent variables.

[3] = system: anti-HA antibodies in human serum; assay: Specific ELISA for HA oligosaccharides, human serum; assay type: binding
Source text: (§1) The enzyme-linked immunosorbent assay (ELISA) plates were coated with HA oligosaccharides (disaccharide, tetrasaccharide and decasaccharide) conjugated with polyacrylamide, obtained from Shemyakin-Ovchinnikov Institute of Biorganic Chemistry, Russian Academy of Science (Moscow, Russia). The disaccharide form was synthesized in this institution, whilst the tetrasaccharide and decasaccharide molecules were obtained from Sigma, Spain, and bound to polyacrylamide in this center. The protocol for determination of anti-HA antibodies was based in previously described ELISAs to determine other anti-carbohydrate antibodies with minimal modifications (Mañez R et al. 2001 Xenotransplantation 8: 15-23; Obukhova P et al. 2007 Xenotransplantation 14: 627-635).
Humans also have preformed antibodies against HA disaccharide (von Gunten S et al. 2009 J Allergy Clin Immunol 123: 1268-1276; Huflejt M E et al. 2009 Mol Immunol 46: 3037-3049). Thus, we used human serums randomly selected to investigate by specific ELISAS, the presence of preformed antibodies against HA disaccharide, tetrasaccharide and decasacchride. Also, antibodies against HA oligosaccharides were investigated in rats immunized either with PRBC and hamster blood following two protocols to generate mainly IgM or IgG antibodies.
The inventors analyzed the level of anti-HA disaccharide antibodies by specific ELISA in patients with SLE and anti-DNA antibodies (Group A; n=17), SLE without anti-DNA antibodies (Group B; n=10) and controls from blood bank (Group C; n=13). The values for IgM anti-HA disaccharide antibodies were (mean±S.E.) 0.58±0.07 in Group A, 0.71±0.13 in Group B, and 0.74±0.11 in Group C, with p=0.1 in ANOVA comparing Group A with Groups B or C. For IgG, the values were 0.37±0.08 in Group A, 0.27±0.05 in Group B, 0.27±0.03 in Group C, with a p=0.3 in ANOVA comparing Group A with Groups B or C.

[4] = system: anti-HA antibodies in rat serum; assay: Specific ELISA for HA oligosaccharides, rats immunized with PRBC or hamster blood; assay type: binding; conditions: for level of preformed antibodies in rats compared to humans: rats before exposure; for level of preformed antibodies in rats compared to humans / production of IgM antibodies: FIG. 6; for production of IgM antibodies / production of IgG antibodies: rats; for production of IgM antibodies: three injections of PRBC or hamster blood every other day; for production of IgG antibodies: three injections of PRBC or hamster blood every other week, FIGS. 7 and 8
Description: Rats were immunized either with PRBC and hamster blood following two protocols to produce mainly IgM or IgG anti-carbohydrate antibodies. Three injections of 1 ml every other day (days 0, 2 and 4) and drawn of blood sample on day 5 was used to investigate IgM antibodies, and three injections every two weeks times 3, with blood obtained 12 days after last injection was used to investigate IgG antibodies.
as §1

[5] = system: hyaluronan (HA antigens) in pig xenograft tissue; assay: Immunohistochemistry of IgM and IgG deposits in xenografts at AHXR with hyaluronidase pre-treatment; design: species or system pig xenograft in baboon
Description: In all the transplants an open xenograft biopsy was obtained 30 minutes after reperfusion, as well as at autopsy after AHXR. Tissue samples were fixed in 10% buffered formalin for at least 24 hours, dehydrated, and embedded in paraffin. Sections of 4 μm thickness were stained with hematoxylin and eosin Immunohistochemical examinations for IgG and IgM were performed in paraffin-embedded material. After inhibition of endogenous alkaline phosphatase with levamisol for 10 minutes, samples were incubated with goat anti-human IgG and IgM alkaline phosphatase conjugated (Sigma-Aldrich) for 30 minutes at 1:50 dilution. Tissue samples where then incubated with the EnVision™ G|2, Rabbit/Mouse (LINK) (Dako) following product recommendations. This reagent is a dextran polymer, which also carries antibodies to rabbit and mouse immunoglobulins. Finally, an alkaline phosphatase-labelled amplification polymer is added. The reaction is visualized by Permanent Red Chromogen also included in the kit. To investigate the potential role of hyaluronan as antigen some tissue sections were pre-treated with 50 u/mL of Streptomyces hyaluronidase (Sigma-Aldrich) for two hours at 37° C., which unlike other hyaluronidases is specific for hyaluronan.
To investigate the potential impact of HA antigens in AHXR, the presence of IgM and IgG deposits in tissue samples was investigated with and without previous incubation with Streptomyces hyaluronidase, which is specific for HA.

[6] = system: human endothelial cells (HMEC); assay: Flow cytometry of non-human primate antibody binding to HMEC pre-treated with hyaluronidase; assay type: cell-based
Source text: The authors have previously shown that immunization of non-human primates with pig blood is associated with the generation of xenoantibodies cross-reactive to human endothelial cells. To investigate whether HA antigens were involved in this reactivity, human endothelial cells (HMEC) were pre-treated with 20 Um′ of hyaluronidase from Streptomyces, which is specific for HA, for one hour. This hyaluronidase cleaves HA in fragments of 4 and 6 saccharides (tetra- and hexasaccharides). […] To show the effect of hyaluronidase pre-treatment in HA on HMEC cells, a hyaluronan-binding-protein (HABP), which binds to large molecular weight HA, was used as control (FIG. 9C).

[7] = animal D17, kidney xenotransplantation
[8] = randomly selected human serums, FIG. 5
[9] = Group A: SLE and anti-DNA antibodies, n=17
[10] = Group B: SLE without anti-DNA antibodies, n=10
[11] = Group C: controls from blood bank, n=13
[12] = hyaluronidase pre-treatment 20 Um′, one hour, serum of primates immunized with pig blood

Compound: O=P1(N(CCCl)CCCl)NCCCO1 (stereo not drawn) [CyP, cyclophosphamide]
- day of death because of side effects from CyP treatment [1]: 31 days and 30 days

Compound: CC(=O)N[C@H]1C(O)O[C@H](CO)[C@@H](O[C@@H]2O[C@H](CO)[C@H](O)[C@H](O[C@H]3O[C@H](CO)[C@H](O)[C@H](O)[C@H]3O)[C@H]2O)[C@@H]1O (stereo partly drawn) [Gal, Galα1-3Galβ1-4GlcNAc, reference compound]
- average±S.D. level of antibodies [2]: 3865±2892 net fluorescence units (NFU)

Compound: C[C@@H]1O[C@@H](OCCCN)[C@H](O)[C@H](O)[C@H]1O [Glycan 11, Rha-Sp8, reference compound]
- change of anti-carbohydrate antibody reactivity at AHXR vs before transplantation [2, 7]: augmented

Compound: CC(=O)N[C@H]1[C@H]([C@H](O)[C@H](O)CO)O[C@](OCCCN)(C(=O)O)C[C@@H]1O [Glycan 14, Neu5Acβ-Sp8, reference compound]
- change of anti-carbohydrate antibodies after PRBC exposure [2]: barely changed

Compound: CC(=O)N[C@H]1[C@H](O[C@H]2[C@H](O)[C@@H](O)[C@H](O[C@H]3[C@H](O)[C@@H](CO)OC(O)[C@@H]3NC(C)=O)O[C@@H]2C(=O)O)O[C@H](CO)[C@@H](O)[C@@H]1O[C@@H]1O[C@H](C(=O)O)[C@@H](O)[C@H](O)[C@H]1O (stereo partly drawn) [HA tetrasaccharide]
- preformed IgM antibodies in human serum [3, 8]: preformed IgM antibodies
- level of preformed antibodies in rats compared to humans [4]: lower level
- production of IgM antibodies [4]: significant production of IgM antibodies
- production of IgG antibodies [4]: significant production

Compound: GlcAβ1-3GlcNAcβ-Sp8 [Glycan 300]
- IgG anti-HA disaccharide antibodies (mean±S.E.) [3, 9]: 0.37±0.08
- IgM anti-HA disaccharide antibodies (mean±S.E.) [3, 9]: 0.58±0.07
- IgG anti-HA disaccharide antibodies (mean±S.E.) [3, 10]: 0.27±0.05
- IgM anti-HA disaccharide antibodies (mean±S.E.) [3, 10]: 0.71±0.13
- IgG anti-HA disaccharide antibodies (mean±S.E.) [3, 11]: 0.27±0.03
- IgM anti-HA disaccharide antibodies (mean±S.E.) [3, 11]: 0.74±0.11
- preformed IgG antibodies in human serum [3, 8]: preformed IgG antibodies are only against HA disaccharide
- preformed IgM antibodies in human serum [3, 8]: preformed IgM antibodies
- level of preformed antibodies in rats compared to humans [4]: lower level
- production of IgM antibodies [4]: significant production of IgM antibodies
- production of IgG antibodies [4]: significant production
- cases with antibodies within the top 20 increases after PRBC exposure ([2]; PRBC exposure, 4 baboons): all the cases
- change of anti-carbohydrate antibody reactivity at AHXR vs before transplantation ([2]; animal A14, severe rejection): More significant raises
- change of anti-carbohydrate antibody reactivity at AHXR vs before transplantation ([2]; animal A15, no treatment, survival 4 days): decreased reactivity
- augment of antibodies after PRBC exposure ([2]; animal C63, day 20, two weeks after end of PRBC injections): evidenced
- level of antibodies after PRBC exposure ([2]; animal C63, day 30 after CyP treatment): higher level of anti-carbohydrate antibodies
- augment of antibodies after PRBC exposure ([2]; animal C63, day two, during PRBC exposure): not present
- change of anti-carbohydrate antibody reactivity at AHXR vs before transplantation ([2]; animal D10, mild rejection): moderated augment
- change of anti-carbohydrate antibody reactivity at AHXR vs before transplantation ([2]; animal D12, severe rejection): More significant raises
- change of anti-carbohydrate antibody reactivity at AHXR vs before transplantation [2, 7]: moderated augment
- change of anti-carbohydrate antibodies after PRBC exposure [2]: higher level and increase
- rank of average level of antibodies ([2]; baboons before exposure to PRBC): highest reactivity
- rank of average level of antibodies ([2]; baboons before pig organ xenotransplantation): second highest reactivity
- average±S.D. level of antibodies [2]: 18332±14201 net fluorescence units (NFU)

Compound: Hyaluronidase
- IgG antibody deposits in xenograft at AHXR, semiquantitative score ([5]; animal A14, AHXR III): complete disappearance
- IgM antibody deposits in xenograft at AHXR, semiquantitative score ([5]; animal A14, AHXR III): notably reduced
- IgG antibody deposits in xenograft at AHXR, semiquantitative score ([5]; animal A15, AHXR III): complete disappearance
- IgM antibody deposits in xenograft at AHXR, semiquantitative score ([5]; animal A15, AHXR III): did not show any change
- IgG antibody deposits in xenograft at AHXR, semiquantitative score ([5]; animal D10, AHXR I): complete disappearance
- IgM antibody deposits in xenograft at AHXR, semiquantitative score ([5]; animal D10, AHXR I): disappeared
- IgG antibody deposits in xenograft at AHXR, semiquantitative score ([5]; animal D12, AHXR III): remarkable reduction
- IgM antibody deposits in xenograft at AHXR, semiquantitative score ([5]; animal D12, AHXR III): notably reduced
- IgG antibody deposits in xenograft at AHXR, semiquantitative score ([5]; animal D17, AHXR III): remarkable reduction
- IgM antibody deposits in xenograft at AHXR, semiquantitative score ([5]; animal D17, AHXR III): did not show any change
- non-human primate IgG antibody binding to HMEC [6, 12]: augment
- non-human primate IgM antibody binding to HMEC [6, 12]: not observed
- HA expression on HMEC detected with hyaluronan-binding-protein (HABP) ([6]; hyaluronidase pre-treatment, compared to the baseline): reduction of HA expression
